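A five-concentration, 48-hour dose response in 96-well plates underlies each endpoint, interpolated linearly between surrounding concentrations. The concentration for 50% growth inhibition is given as GI50.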 Activity calls are given as the source filed them. No stated cut-off is given here; in the data, active = GI50 up to about 1.1 µM and inactive = higher.
Tests used:
Assay in all cases: inhibition of tumour cell growth, NCI panel, 48 h
UACC-257 = tested on: UACC-257
NCI-H460 = tested on: NCI-H460
UO-31 = tested on: UO-31
M14 = tested on: M14
U-251 = tested on: U-251
SK-MEL-2 = tested on: SK-MEL-2
HCT-116 = tested on: HCT-116
COLO 205 = tested on: COLO 205
CAKI-1 = tested on: CAKI-1
NCI-H522 = tested on: NCI-H522
SN12C = tested on: SN12C
CCRF-CEM = tested on: CCRF-CEM
NCI-H23 = tested on: NCI-H23
OVCAR-4 = tested on: OVCAR-4
SF-268 = tested on: SF-268
HOP-92 = tested on: HOP-92
MDA-MB-435 = tested on: MDA-MB-435
SF-539 = tested on: SF-539
SW-620 = tested on: SW-620
SNB-19 = tested on: SNB-19

Structure (SMILES) | GI50 (UACC-257) | GI50 (NCI-H460) | GI50 (UO-31) | GI50 (M14) | GI50 (U-251) | GI50 (SK-MEL-2) | GI50 (HCT-116) | GI50 (COLO 205) | GI50 (CAKI-1) | GI50 (NCI-H522) | GI50 (SN12C) | GI50 (CCRF-CEM) | GI50 (NCI-H23) | GI50 (OVCAR-4) | GI50 (SF-268) | GI50 (HOP-92) | GI50 (MDA-MB-435) | GI50 (SF-539) | GI50 (SW-620) | GI50 (SNB-19)
Nc1ccn(C2CCC(CO)O2)c(=S)n1 (stereo not given) | > 100 µM (inactive) | > 100 µM (inactive) | > 100 µM (inactive) | > 100 µM (inactive) | > 100 µM (inactive) | > 100 µM (inactive) | > 100 µM (inactive) | > 100 µM (inactive) | > 100 µM (inactive) | > 100 µM (inactive) | > 100 µM (inactive) | > 100 µM (inactive) | > 100 µM (inactive) | > 10 µM (inactive) | > 100 µM (inactive) | > 100 µM (inactive) | > 100 µM (inactive) | > 100 µM (inactive) | > 100 µM (inactive) | > 100 µM (inactive)
O=C(O)c1nnsc1-c1csnn1 | > 100 µM (inactive) | > 100 µM (inactive) | > 100 µM (inactive) | > 100 µM (inactive) | > 100 µM (inactive) | > 100 µM (inactive) | > 100 µM (inactive) | > 100 µM (inactive) | > 100 µM (inactive) | > 100 µM (inactive) | > 100 µM (inactive) | > 100 µM (inactive) | > 100 µM (inactive) | > 100 µM (inactive) | > 100 µM (inactive) | > 100 µM (inactive) | > 100 µM (inactive) | > 100 µM (inactive) | > 100 µM (inactive) | > 100 µM (inactive)
C[C@H]1C(=O)C2=C[C@H]1CCC(=O)[C@]1(C)CCCC(C)(C)[C@H]1C[C@H]2O | 32.3 µM (inactive) | 21.9 µM (inactive) | 27.4 µM (inactive) | 13.2 µM (inactive) | 15.1 µM (inactive) | > 100 µM (inactive) | 31.7 µM (inactive) | 14.3 µM (inactive) | 22.4 µM (inactive) | 0.986 µM (active) | 26.9 µM (inactive) | 15.8 µM (inactive) | 21.8 µM (inactive) | 48.6 µM (inactive) | 20.5 µM (inactive) | 24.3 µM (inactive) | 31.2 µM (inactive) | 15.4 µM (inactive) | 14.9 µM (inactive) | > 100 µM (inactive)
O=C1CSC2(CC(/C=C/c3cccs3)=NN2c2cccc(S(=O)(=O)O)c2)N1c1nc2ccccc2s1 (stereo not given) | > 100 µM (inactive) | 67.5 µM (inactive) | 83.6 µM (inactive) | > 100 µM (inactive) | 65.6 µM (inactive) | > 100 µM (inactive) | > 100 µM (inactive) | > 100 µM (inactive) | > 100 µM (inactive) | 64.9 µM (inactive) | > 100 µM (inactive) | 33 µM (inactive) | 42.7 µM (inactive) | > 100 µM (inactive) | > 100 µM (inactive) | 41.2 µM (inactive) | 72.4 µM (inactive) | > 100 µM (inactive) | > 100 µM (inactive) | > 100 µM (inactive)
CCOP(=O)(OCC)C(Nc1ccc(Br)cc1)c1cccc([N+](=O)[O-])c1 (stereo not given) | > 10 µM (inactive) | 14.1 µM (inactive) | 10.8 µM (inactive) | 17.1 µM (inactive) | 18.2 µM (inactive) | 16.7 µM (inactive) | 12.7 µM (inactive) | 13.2 µM (inactive) | 22.1 µM (inactive) | 13.6 µM (inactive) | 18.8 µM (inactive) | 17.8 µM (inactive) | 20.7 µM (inactive) | 21.4 µM (inactive) | 17.7 µM (inactive) | 20.7 µM (inactive) | 16.1 µM (inactive) | 19.6 µM (inactive) | 16.9 µM (inactive) | 24.9 µM (inactive)
N#C[BH2-][n+]1ccc(C(=O)NNCc2cccc(C(F)(F)F)c2)cc1 | 4.92 µM (inactive) | 20 µM (inactive) | 11.9 µM (inactive) | 8.75 µM (inactive) | 7.71 µM (inactive) | 12.1 µM (inactive) | 15.2 µM (inactive) | 14.1 µM (inactive) | 37.9 µM (inactive) | 16.3 µM (inactive) | 28.8 µM (inactive) | 28.4 µM (inactive) | 12.2 µM (inactive) | 6.14 µM (inactive) | 4.82 µM (inactive) | 14.9 µM (inactive) | 17.7 µM (inactive) | 4.08 µM (inactive) | 25.5 µM (inactive) | 13.6 µM (inactive)
O=C(Cn1ccnc1[N+](=O)[O-])NCCO [ETANIDAZOLE] | 56.5 µM (inactive) | 27.5 µM (inactive) | > 100 µM (inactive) | > 100 µM (inactive) | > 100 µM (inactive) | > 100 µM (inactive) | > 100 µM (inactive) | > 100 µM (inactive) | > 100 µM (inactive) | > 100 µM (inactive) | > 100 µM (inactive) | > 100 µM (inactive) | > 100 µM (inactive) | > 100 µM (inactive) | > 100 µM (inactive) | > 100 µM (inactive) | > 100 µM (inactive) | > 100 µM (inactive) | > 100 µM (inactive) | > 100 µM (inactive)

Reference: ChEMBL document CHEMBL1201862, “PubChem BioAssay data set” (2004)
